Measurements published in patent publication US11793841B2, “Microbial compositions and methods for treating type 2 diabetes, obesity, and metabolic syndrome” (Solarea Bio, Inc., priority 2017, dated 2023).

Test system: diet induced obese (DIO) C57BL/6J mice
Assay: Oral glucose tolerance test (OGTT) in diet induced obese mice
Assay type: in vivo
Settings: monotherapy; by 60 minutes
Method: After 4 weeks of dosing mice with test article, an OGTT was performed. Here, mice were fasted for 6 hours after which fasting blood glucose levels were measured via tail vein blood using a glucometer (One-Touch Ultra II). Mice were then dosed with an oral glucose bolus (2 g/kg) via oral gavage, and blood glucose was measured at 20, 40, 60, and 120 minutes post gavage.

**Q.** With `CN(C)C(=N)N=C(N)N` [metformin] as the compound, how does the “blood glucose after glucose challenge” value read?
**A.** The value was “remained elevated”.
